# Values quoted from earlier work as cited in patent US20110165235A1, “DIRECTLY PRESSED ALISKIREN TABLETS” (ratiopharm GmbH, priority 2008, published 2011).
# Conditions: BCS classification
compound,measurement,value
"COCCCOc1cc(C[C@@H](C[C@H](N)[C@@H](O)C[C@H](C(=O)NCC(C)(C)C(N)=O)C(C)C)C(C)C)ccc1OC [Aliskiren, (2S,4S,5S,7S)-5-amino-N-(2-carbamoyl-2-methyl-propyl)-4-hydroxy-7-{[4-methoxy-3-(3-methoxypropoxy)phenyl]methyl}-8-methyl-2-propan-2-yl-nonanamide]",solubility,high
